Laboratory results taken from patent US20090093469A1, “Phenylaminopropanol Derivatives and Methods of Their Use” (WYETH, priority 2004, published 2009).
Where a name gives a salt, the structure may show the parent alone.

target: T1, hNET (Homo sapiens, UniProt P23975); test: Norepinephrine (NE) uptake assay in MDCK-Net6 cells stably transfected with human hNET; format: cell-based; conditions: MDCK-Net6, read-out: % Inhibition @ 1 μM (hNET)
T1 construct: expressed in transfected cells
T1 sequence (P23975 whole entry): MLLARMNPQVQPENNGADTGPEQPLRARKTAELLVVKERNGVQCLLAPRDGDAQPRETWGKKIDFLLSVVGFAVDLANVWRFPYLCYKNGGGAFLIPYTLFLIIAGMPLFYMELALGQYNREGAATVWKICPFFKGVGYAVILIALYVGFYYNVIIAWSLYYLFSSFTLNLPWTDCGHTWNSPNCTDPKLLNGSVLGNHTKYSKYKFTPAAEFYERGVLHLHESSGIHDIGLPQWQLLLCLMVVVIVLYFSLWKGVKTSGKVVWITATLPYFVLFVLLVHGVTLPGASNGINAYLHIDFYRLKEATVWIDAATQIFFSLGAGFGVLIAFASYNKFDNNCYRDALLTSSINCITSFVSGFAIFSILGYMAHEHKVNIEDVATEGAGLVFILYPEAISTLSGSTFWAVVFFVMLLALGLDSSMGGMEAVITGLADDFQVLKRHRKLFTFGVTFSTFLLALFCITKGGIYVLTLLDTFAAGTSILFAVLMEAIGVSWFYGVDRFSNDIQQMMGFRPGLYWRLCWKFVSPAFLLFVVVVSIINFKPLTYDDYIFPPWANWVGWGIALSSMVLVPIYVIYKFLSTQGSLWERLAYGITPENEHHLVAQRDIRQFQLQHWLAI

Compound	inhibition at 1 µM [%]
CNC[C@@H](O)[C@H](c1cccc(F)c1)n1ccc2cccc(Cl)c21 [Example 149, (1S,2R)-1-(7-chloro-1H-indol-1-yl)-1-(3-fluorophenyl)-3-(methylamino)propan-2-ol hydrochloride]	100
CCNC[C@H](O)[C@@H](c1ccccc1)n1cc(C)c2ccccc21 (racemic) [Example 12, (1RS,2SR)-3-(ethylamino)-1-(3-methyl-1H-indol-1-yl)-1-phenyl propan-2-ol hydrochloride]	70.6
CCCn1c(=O)n([C@@H](c2ccccc2)[C@H](O)CNC)c2cc(F)ccc21 [Example 198, 5-fluoro-3-[(1S,2R)-2-hydroxy-3-(methylamino)-1-phenylpropyl]-1-propyl-1,3-dihydro-2H-benzimidazol-2-one hydrochloride]	97.7
CNC[C@@H](O)[C@H](c1cccc(F)c1)n1ccc2cc(Br)ccc21 [Example 127, (1S,2R)-1-(5-bromo-1H-indol-1-yl)-1-(3-fluorophenyl)-3-(methylamino)propan-2-ol hydrochloride]	95.7
CCNC[C@H](O)[C@@H](c1ccccc1)n1ccc2ccccc21 (racemic) [Example 5, (1RS,2SR)-3-(ethylamino)-1-(1H-indol-1-yl)-1-phenylpropan-2-ol hydrochloride]	58.1
CNC[C@H](O)[C@@H](c1ccccc1)n1ccc2cc(F)ccc21 (racemic) [Example 20, (1RS,2SR)-1-(5-fluoro-1H-indol-1-yl)-3-(methylamino)-1-phenylpropan-2-ol hydrochloride]	85
CNC[C@@H](O)[C@H](c1cccc(F)c1)n1ccc2cc(C)ccc21 [Example 92, ((1S,2R)-1-(3-fluorophenyl)-3-(methylamino)-1-(5-methyl-1H-indol-1-yl)propan-2-ol hydrochloride]	85.8
CCCn1c(=O)n([C@@H](c2ccccc2)[C@H](O)CNC)c2ccccc21 [Example 193, 1-[(1S,2R)-2-hydroxy-3-(methylamino)-1-phenylpropyl]-3-propyl-1,3-dihydro-2H-benzimidazol-2-one hydrochloride]	98.4
CNCC(O)[C@@H](c1ccccc1)n1ccc2ccccc21 (stereo in doubt) [Example 22, (1R,2S)-1-(1H-indol-1-yl)-3-(methylamino)-1-phenylpropan-2-ol hydrochloride]	83.8
CNC[C@@H](O)[C@H](c1cccc(F)c1)n1ccc2cccc(F)c21 [Example 183, (1S,2R)-1-(7-fluoro-1H-indol-1-yl)-1-(3-fluorophenyl)-3-(methylamino)propan-2-ol hydrochloride]	100
Cc1cn([C@@H](c2ccccc2)[C@H](O)CN)c2ccccc12 [Example 178, (1S,2R)-3-amino-1-(3-methyl-1H-indol-1-yl)-1-phenylpropan-2-ol hydrochloride]	69.2
CNC[C@@H](O)[C@H](c1cccc(Cl)c1)n1ccc2ccccc21 [Example 33, (1S,2R)-1-(3-chlorophenyl)-1-(1H-indol-1-yl)-3-(methylamino)propan-2-ol hydrochloride]	99.4

same assay, conditions: test compound 1 μM; [3H]NE uptake, MDCK-Net6 cells; read-out: % Inhibition @ 1 μM (hNET)

Compound	inhibition at 1 µM [%]
CNC[C@@H](O)[C@H](c1cccc(F)c1)n1cc(-c2cccc(C)c2)c2ccccc21 [Example 48, (1S,2R)-1-(3-fluorophenyl)-3-(methylamino)-1-[3-(3-methylphenyl)-1H-indol-1-yl]propan-2-ol hydrochloride]	96.6
CNC[C@@H](O)[C@H](c1ccccc1)N1C(=O)C2(CCCCC2)c2cccc(F)c21 [Example 112, 7′-fluoro-1′-[(1S,2R)-2-hydroxy-3-(methylamino)-1-phenylpropyl]-spiro[cyclohexane-1,3′-indol]-2′(1′H)-one hydrochloride]	100
O[C@H]([C@@H]1CCCN1)[C@H](c1cccc(F)c1)n1ccc2ccccc21 [Example 106, (1R,2S)-2-(3-fluorophenyl)-2-(1H-indol-1-yl)-1-[(2S)-pyrrolidin-2-yl]ethanol hydrochloride]	85.8
CNC[C@@H](O)[C@H](c1cccc(F)c1)N1C(=O)C(C)(C)c2ccccc21 [Example 210, 1-[(1S,2R)-1-(3-fluorophenyl)-2-hydroxy-3-(methylamino)propyl]-3,3-dimethyl-1,3-dihydro-2H-indol-2-one hydrochloride]	96.3
CNC[C@@H](OC)[C@H](c1ccccc1)n1cc(C)c2cc(F)ccc21 [Example 123, [(2R,3S)-3-(5-fluoro-3-methyl-1H-indol-1-yl)-2-methoxy-3-phenylpropyl]methylamine hydrochloride]	65
CNC[C@@H](O)[C@H](c1cccc(F)c1)n1cc(-c2ccccc2OC)c2ccccc21 [Example 176, (1S,2R)-1-(3-fluorophenyl)-1-[3-(2-methoxyphenyl)-1H-indol-1-yl]-3-(methylamino)propan-2-ol hydrochloride]	100
CNC[C@H](O)[C@@H](c1ccccc1OC(F)(F)F)n1ccc2ccccc21 [Example 37, (1R,2S)-1-(1H-indol-1-yl)-3-(methylamino)-1-[2-(trifluoromethoxy)phenyl]propan-2-ol hydrochloride]	21.4
CNC[C@@H](O)[C@H](c1cccc(C#N)c1)n1ccc2ccccc21 [Example 44, 3-[(1S,2R)-2-hydroxy-1-(1H-indol-1-yl)-3-(methylamino)propyl]benzonitrile hydrochloride]	98.2
CNC[C@@H](O)[C@H](c1cc(F)cc(F)c1)n1ccc2ccccc21 [Example 157, (1S,2R)-1-(3,5-difluorophenyl)-1-(1H-indol-1-yl)-3-(methylamino)propan-2-ol hydrochloride]	99.6
CNC[C@@H](O)[C@H](c1ccccc1)n1ccc2cccc(OC)c21 [Example 77, (1S,2R)-1-(7-methoxy-1H-indol-1-yl)-3-(methylamino)-1-phenylpropan-2-ol hydrochloride]	77.3
CCN(C)C[C@H](O)[C@@H](c1ccccc1)n1ccc2ccccc21 (racemic) [Example 25, (1RS,2SR)-3-[ethyl(methyl)amino]-1-(1H-indol-1-yl)-1-phenylpropan-2-ol hydrochloride]	37.5
CNC[C@@H](O)[C@H](c1ccccc1)N1C(=O)C(C)(C)c2ccc(F)cc21 [Example 195, 6-fluoro-1-[(1S,2R)-2-hydroxy-3-(methylamino)-1-phenylpropyl]-3,3-dimethyl-1,3-dihydro-2H-indol-2-one hydrochloride]	91
CNC[C@@H](O)[C@H](c1cccc(F)c1)n1cc(-c2cccc(C(F)(F)F)c2)c2ccccc21 [Example 177, (1S,2R)-1-(3-fluorophenyl)-3-(methylamino)-1-{3-[3-(trifluoromethyl)phenyl]-1H-indol-1-yl}propan-2-ol hydrochloride]	29.9
CNC[C@@H](O)[C@H](c1cccc(F)c1)n1cc(-c2ccc(OC)cc2)c2ccccc21 [Example 169, (1S,2R)-1-(3-fluorophenyl)-1-[3-(4-methoxyphenyl)-1H-indol-1-yl]-3-(methylamino)propan-2-ol hydrochloride]	72
NCC[C@@H](O)[C@H](c1cccc(Cl)c1)n1ccc2ccccc21 [Example 42, (1S,2R)-4-amino-1-(3-chlorophenyl)-1-(1H-indol-1-yl)butan-2-ol hydrochloride]	95.7
Cc1cn([C@@H](c2ccccc2)[C@H](O)CN)c2ccc(F)cc12 (racemic) [Example 118, (1SR,2RS)-3-amino-1-(5-fluoro-3-methyl-1H-indol-1-yl)-1-phenylpropan-2-ol hydrochloride]	67.9
CNC[C@@H](O)[C@H](c1cccc(F)c1)n1cc(-c2ccc(C(F)(F)F)cc2)c2ccccc21 [Example 173, (1S,2R)-1-(3-fluorophenyl)-3-(methylamino)-1-{3-[4-(trifluoromethyl)phenyl]-1H-indol-1-yl}propan-2-ol hydrochloride]	67.5
CNC[C@@H](O)[C@H](c1ccccc1)n1ccc2ccncc21 [Example 84, (1S,2R)-3-methylamino-1-phenyl-1-(1H-pyrrolo[2,3-c]pyridin-1-yl) propan-2-ol dihydrochloride]	40.9
CNC[C@@H](O)[C@H](c1cccs1)n1ccc2ccccc21 [Example 103, (1R,2R)-1-(1H-indol-1-yl)-3-(methylamino)-1-(2-thienyl)propan-2-ol hydrochloride]	86.1
CCCNC[C@@H](O)[C@H](c1cccc(F)c1)n1ccc2ccccc21 [Example 57, (1S,2R)-1-(3-fluorophenyl)-1-(1H-indol-1-yl)-3-(propylamino)propan-2-ol hydrochloride]	17.5
NCC[C@@H](O)[C@H](c1cccc(F)c1)n1ccc2ccccc21 [Example 159, (1S,2R)-4-amino-1-(3-fluorophenyl)-1-(1H-indol-1-yl)butan-2-ol hydrochloride]	93.8
CCNC[C@@H](O)[C@H](c1cccc(F)c1)n1ccc2ccccc21 [Example 55, (1S,2R)-3-(ethylamino)-1-(3-fluorophenyl)-1-(1H-indol-1-yl)propan-2-ol hydrochloride]	61.1
CNC[C@@H](O)[C@H](c1cccc(F)c1)n1cc(-c2cccc(OC)c2)c2ccccc21 [Example 172, (1S,2R)-1-(3-fluorophenyl)-1-[3-(3-methoxyphenyl)-1H-indol-1-yl]-3-(methylamino)propan-2-ol hydrochloride]	88
CNC[C@@H](O)[C@H](c1cccc(F)c1)n1cc(-c2ccccc2Cl)c2ccccc21 [Example 214, (1S,2R)-1-[3-(2-chlorophenyl)-1H-indol-1-yl]-1-(3-fluorophenyl)-3-(methylamino)propan-2-ol hydrochloride]	99.9
NC[C@H](O)[C@@H](c1ccccc1)n1ccc2cc(F)ccc21 (racemic) [Example 19, (1RS,2SR)-3-amino-1-(5-fluoro-1H-indol-1-yl)-1-phenylpropan-2-ol hydrochloride]	31.6
